Test results: US10750729B2, “Pig for atrioventricular block model, monkey for atrioventricular block model, guinea pig for atrioventricular block model, and use thereof” (Toho University, priority 2012, dated 2020)

Tests used:
dog = conditions: dose 10 times to 30 times greater than that for human; cited from earlier work
Dogs = experiment: Comparative Test Example 1: electrocardiogram of halothane-anesthetized dogs; assay type: in vivo; conditions: dog, 30 min recording
Procedure: Dogs (body weight: 10 kg, male, obtained from Nosan Co., Ltd.) were each anesthetized by intravenously administering thereto sodium thiopental (product of Mitsubishi Tanabe Pharma Corporation) at 30 mg/kg. After insertion of a tracheal cannula, an artificial respirator was used to ventilate it with 100% by volume oxygen and 1% by volume vaporized halothane. Here, the artificial respirator for experimental animals was set to a tidal volume of 20 mL/kg and a respiration rate of 15 strokes/min. Next, a cannula for drug administration was inserted to their left femoral vein. Then, ECG standard limb II leads was continuously recorded.
Each of the dogs (n=4) of Comparative Example 1 was recorded for an electrocardiogram before drug administration.
Fingolimod (FTY720, product of Sigma-Aldrich Inc.) was dissolved in 1% by mass lactic acid solution (product of Otsuka Pharmaceutical Factory, Inc.) so as to have a concentration of 0.3 mg/mL.
(§1) After the evaluation of base control, the cannula for drug administration was inserted, and the above-prepared FTY720 solution was intravenously administered to each of the dogs (n=4) of Comparative Example 1 for 10 min at a dose of 0.3 mg/kg. An electrocardiogram was recorded for 30 min from the start of administration of the FTY720 solution.
Fingolimod (FTY720, product of Sigma-Aldrich Inc.) was dissolved in 1% by mass lactic acid solution (product of Otsuka Pharmaceutical Factory, Inc.) so as to have a concentration of 3 mg/mL.
as §1, with “3” for “0.3”

Guinea pigs (Hartley) = experiment: Test Example 3-1: electrocardiogram and aortic pressure of halothane-anesthetized guinea pigs (FTY720); assay type: in vivo; conditions: guinea pig
Procedure: Guinea pigs (Hartley, body weight: 420 g to 650 g, male, obtained from Japan SLC, Inc.) were each anesthetized by intraperitoneally administering thereto sodium thiopental (product of Mitsubishi Tanabe Pharma Corporation) at 50 mg/kg. Next, a tracheal cannula was inserted into each of the guinea pigs. While their body temperature was being maintained at 37° C. with a warming pad, the guinea pigs were allowed to inhale 100% by volume oxygen and 1% by volume vaporized halothane (product of Takeda Pharmaceutical Company Limited.) using an artificial respirator for experimental animals (SN-480-7; product of shimano Co., Ltd.). Here, the artificial respirator for experimental animals was set to a tidal volume of 10 mL/kg and a respiration rate of 60 strokes/min. Next, a cannula for drug administration was inserted to their left femoral vein. In addition, a heparinized catheter for monitoring the blood pressure was inserted to the aorta through the left femoral […]. Then, ECG standard limb II leads was continuously recorded.
Each of the guinea pigs (n=12) of Example 3 was recorded for an electrocardiogram before administration of a drug or a solvent.
FTY720 (product of Sigma-Aldrich Inc.) was dissolved in physiological saline (product of Otsuka Pharmaceutical Factory, Inc.) so as to have a concentration of 0.03 mg/mL.
(§2) After the evaluation of base control, the cannula for drug administration was inserted, and the above-prepared FTY720 solution was intravenously administered to each of the guinea pigs (n=4) of Example 3 for 10 min at a dose of 0.01 mg/kg. These guinea pigs were evaluated for parameters by the following evaluation methods at 5 min, 10 min, 15 min, 20 min, 30 min, 45 min or 60 min after the administration of the FTY720 solution.
FTY720 (product of Sigma-Aldrich Inc.) was dissolved in physiological saline (product of Otsuka Pharmaceutical Factory, Inc.) so as to have a concentration of 0.3 mg/mL.
as §2, with “0.1” for “0.01”
The aortic pressure and the electrocardiogram were monitored using a polygraph system (RM-6000, product of NIHON KOHDEN Co. Ltd.) and analyzed with a full-automated analysis system in real time (WinVAS ver. 3, 1.1R03; product of Physio-Tech Co., Ltd.).
Parameters of the electrocardiogram were measured three times, and the obtained values were averaged. Atrial rate was calculated from PP interval of the electrocardiogram. Ventricular rate was calculated from RR interval of the electrocardiogram.
The measurements in FIGS. 4A to 4E are expressed as mean±SE (n=4). The difference between the parameters was evaluated with one-way repeated measures analysis of variance (ANOVA). It was considered that p<0.05 is statistically significant. In FIG. 4A to 4C and FIG. 4E, “white circle,” “white square” and “white triangle” each mean absence of a significant difference relative to the value of the evaluation of base control (C), and “black circle” and “black square” each mean presence of a significant difference relative to the value of the evaluation of base control (C).
Also, in FIG. 4D, “white circle” means absence of development of atrioventricular block or presence of development of first-degree atrioventricular block, “white square” means presence of development of second-degree atrioventricular block (Wenckebach type), “white triangle” means presence of development of advanced atrioventricular block, “x-mark” means presence of development of third-degree atrioventricular block (complete atrioventricular block), and #1 to 4 refer to each individual.

[1] = FTY720 0.01 and 0.1 mg/kg/10 min i.v., for 60 min from start
[2] = high-dose 0.1 mg/kg/10 min i.v., n=4

CCCCCCCCc1ccc(CCC(N)(CO)CO)cc1 [FTY720, Fingolimod]
occurrence of atrioventricular block (dog): not reported
change in PR interval (Dogs; high-dose 3 mg/kg/10 min i.v.): no change
change in heart rate (HR) (Dogs; high-dose 3 mg/kg/10 min i.v.): significantly increased
change in PR interval (Dogs; low-dose 0.3 mg/kg/10 min i.v.): no significant change
change in heart rate (HR) (Dogs; low-dose 0.3 mg/kg/10 min i.v.): no significant change
change in atrial rate (Guinea pigs (Hartley); [1]): no significant change
change in blood pressure (MBP) (Guinea pigs (Hartley); [1]): no significant change
change in QRS width (Guinea pigs (Hartley); high-dose 0.1 mg/kg/10 min i.v.): no significant change
correspondence of P wave and R wave in the electrocardiogram (Guinea pigs (Hartley); high-dose 0.1 mg/kg/10 min i.v., 45 min after start): the atrium and the ventricle are contracted independently of each other at their own individual rhythms
change in PR interval (Guinea pigs (Hartley); high-dose 0.1 mg/kg/10 min i.v., before development of atrioventricular block): prolonged
change in ventricular rate (Guinea pigs (Hartley); high-dose 0.1 mg/kg/10 min i.v., from 20 min to 60 min): significant decrease
change in QT interval (Guinea pigs (Hartley); high-dose 0.1 mg/kg/10 min i.v., from 45 min to 60 min): prolonged
individuals that developed Wenckebach-type atrioventricular block (Guinea pigs (Hartley); [2]): one individual
individuals that developed complete atrioventricular block (Guinea pigs (Hartley); [2]): three individuals out of the four individuals
change in any electrophysiological parameters (PR interval, QRS width, QT interval) (Guinea pigs (Hartley); low-dose 0.01 mg/kg/10 min i.v., at 60 min from start): no significant change
change in ventricular rate (Guinea pigs (Hartley); low-dose 0.01 mg/kg/10 min i.v., for 60 min from start): no significant change
